From patent US9593144B2, “FPR1 antagonist derivatives and use thereof” (CHANG GUNG UNIVERSITY, priority 2014, dated 2017)
Like-named read-outs stand apart in the source and are kept apart here. Square brackets hold non-standard residues; d marks the D form. Peptide text beside a SMILES is read from it. * marks the point of attachment. Hydrocinnamoyl = O=C(CCc1ccccc1)*

Experiments:
human neutrophils [1] = test: cells; assay type: cell-based; conditions: fMLP/CB, mean ± SEM
Description: Degranulation of azurophilic granules was determined by elastase release as described above. Experiments were performed using MeO-Suc-[…]-nitroanilide as the elastase substrate. […] Results are expressed as the percentage of elastase release in the drug-free control group, DMSO. Tables 5 and 6 explore whether there is an anti-inflamatory effect in the dipeptide derivatives. Because ferricytochrome c cannot penetrate cell membranes, it reacts with superoxide anion extracellularly. Also, there are absorptive reactions at 550 nm, and differences among the absorptive reactions can be used to evaluate the influence on the release of superoxide anion. The elastase is released by degranulation as the neutrophil is activated. Tables 5 and 6 use the substrate, MeO-Suc-[…]-nitroanilide, with the specificity for reacting with the elastase so as to evaluate the influence of the candidate compound on the elastase release. Blood was taken from healthy human donors (20-32 years old) by venipuncture, following a protocol approved by the Institutional Review Board at Chang Gung Memorial Hospital. Neutrophils were isolated by a standard method of dextran sedimentation prior to centrifugation in a Ficoll Hypaque gradient and the hypotonic lysis of erythrocytes. […] The degranulation of azurophilic granules was determined by elastase release as described above. Experiments were performed using MeO-Suc-[…]-nitroanilide as the elastase substrate. Briefly, after supplementation with MeO-Suc-[…]-nitroanilide ([…] neutrophils (6×10^5 ml^-1) were equilibrated at 37° C. for 2 min and incubated with drugs for 5 min. […] The results are expressed as the percentage of elastase release in the drug-free control group.

human neutrophils [2] = test: cells; assay type: cell-based; conditions: human neutrophils, fMLP/CB, mean ± SEM, n = 3, read-out: Anti-inflammation O2•− generation (IC50)
Text: Tables 5 and 6 explore whether there is an anti-inflamatory effect in the dipeptide derivatives. Because ferricytochrome c cannot penetrate cell membranes, it reacts with superoxide anion extracellularly. Also, there are absorptive reactions at 550 nm, and differences among the absorptive reactions can be used to evaluate the influence on the release of superoxide anion. The elastase is released by degranulation as the neutrophil is activated. Tables 5 and 6 use the substrate, MeO-Suc-Ala-Ala-Pro-Val-p-nitroanilide, with the specificity for reacting with the elastase so as to evaluate the influence of the candidate compound on the elastase release.
Blood was taken from healthy human donors (20-32 years old) by venipuncture, following a protocol approved by the Institutional Review Board at Chang Gung Memorial Hospital. Neutrophils were isolated by a standard method of dextran sedimentation prior to centrifugation in a Ficoll Hypaque gradient and the hypotonic lysis of erythrocytes.
The evaluation of O2.^− generation was based on the SOD-inhibitable reduction of ferricytochrome c. In brief, after supplementation with 0.5 mg ml^−1 ferricytochrome c and 1 mM Ca^2+, neutrophils were equilibrated at 37° C. for 2 min and incubated with drugs […].

melting point	IC50 (human neutrophils [1]; Neutrophil, n = 3, Table 1, read-out: Anti-inflammation NE release (IC50))	IC50 (human neutrophils [2]; Neutrophil, Table 1)	IC50 (human neutrophils [1]; Neutrophil, n = 3, Table 3, read-out: Anti-inflammation NE release (IC50))	IC50 (human neutrophils [2]; Neutrophil, Table 3)	IC50 (human neutrophils [1]; n = 3, Table 3, read-out: Anti-inflammation NE release (IC50))	IC50 (human neutrophils [2]; Table 3)	SMILES
159 to 161 °C	12.5 ± 4.87 µM	10.1 ± 3.05 µM					COC(=O)[C@@H](Cc1ccccc1)NC(=O)[C@H](Cc1c[nH]c2ccccc12)NC(=O)CCc1ccccc1 [Compound 9, N—(N-Phenylpropanoyl-L-tryptophanyl)-D-phenylalanine methyl ester] (Hydrocinnamoyl-Trp-[dF]-OMe)
151 to 153 °C			> 30 µM	> 30 µM			O=C(N[C@@H](Cc1c[nH]c2ccccc12)C(=O)N[C@@H](CO)Cc1ccccc1)c1ccccc1 [Compound 13a, N—(N-Benzoyl-L-tryptophanyl)-D-phenylalaninol]
120 to 122 °C					> 30 µM	> 30 µM	O=C(N[C@@H](Cc1c[nH]c2ccccc12)C(=O)N[C@@H](CO)Cc1ccccc1)c1ccccc1 [Compound 13b, N—(N-Benzoyl-L-tryptophanyl)-D-phenylalaninol]
